Earlier results, collected in patent US12220439B2, “Methods of diagnosing and treating dry eye syndrome and compositions for treating a human eye” (Akrivista LLC, priority 2017, dated 2025).

Key:
corneal cells = conditions: concentrations from about 0.004% to about 0.02% (w/v)
Pseudomonas aeruginosa = conditions: strains of Pseudomonas aeruginosa
HLA-DR = conditions: dry eye disease biomarker

| Compound | effect on corneal epithelium (corneal cells) | effectiveness against potential contaminants (Pseudomonas aeruginosa) | HLA-DR presence on treatment (HLA-DR) |
| --- | --- | --- | --- |
| benzalkonium chloride [BAK] | can lead to corneal epithelial separation | not effective | – |
| C[C@@H]1CCN(C(=O)CC#N)C[C@@H]1N(C)c1ncnc2[nH]ccc12 [tofacitinib] | – | – | Presence decreased with CsA |
